Measured values from PMC10578023 (Cell Communication and Signaling : CCS, 2023).

Assays:
TYK2/JAK2 [1] = assay: IL-12/IL-18-induced IFNγ production in NK-92 cells, ELISA; assay type: cell-based, human
Method: (§1) The inhibitory effect of QL-1200186 on IL-12/IL-18-induced IFNγ production in NK cells or human whole blood was determined by enzyme-linked immunosorbent assay (ELISA). NK92 cells were stimulated with recombinant human IL-12 (2 ng/mL; 200–12; PeproTech, Cranbury, NJ, USA) and recombinant human IL-18 (5 ng/mL; 9124-IL-050/CF; R&D Systems, Minneapolis, MN, USA) with or without QL-1200186 for 24 h at 37 °C. For human whole blood cells, whole blood (200 μL) was preincubated with the compound for 1 h and then stimulated with recombinant human IL-12 (2 ng/mL) or recombinant human IL-18 (10 ng/mL) for 24 h. After centrifugation, the supernatant was collected, and IFNγ production in the supernatant was measured with human IFNγ ELISA kits according to the manufacturer’s instructions (Biolegend, 430,104).

TYK2/JAK1 [2] = assay: IFNα HEK293 (HEK-Blue IFN-α/β) reporter gene assay; assay type: cell-based, human
Method: HEK-Blue™ IFN-α/β cells were used to determine the activity of QL-1200186. After 24 h of incubation with QL-1200186, HEK-Blue™ IFN-α/β cells (Invivogen; NKB-IFNAB) were stimulated with human IFNα (200 U/mL; catalog number: 11200–2; PBL Assay Science; Piscataway, NJ, USA) for 6 h. Stimulation of HEK-Blue IFN-α/β cells with human IFNα activates the JAK/STAT/ISGF3 pathway and subsequently induces the production of SEAP. Levels of SEAP in the supernatant were readily assessable using QUANTI-Blue™ Solution (InvivoGen, San Diego, CA, USA).

TYK2/JAK1 [3] = assay: IL-23 HEK293 reporter assay; assay type: cell-based, human
logD7.4 = assay type: physicochemical; conditions: pH 7.4
TYK2/JAK1 [4] = assay: IFNα-induced pSTAT1 in CD3+ T cells of human PBMCs; assay type: cell-based
Method: The reaction was terminated by collecting cells for surface staining. Cells were stained with anti-CD3 FITC (300406; Biolegend, San Diego, CA, USA), anti-CD19 APC (555415; BD Biosciences) or aqua fluorescent reactive dye BV421 (L34966A; Invitrogen, Carlsbad, CA, USA) antibodies for 20 min. After washing, fixation buffer (557870; BD Biosciences) was added and incubated for 10 min. Cells were washed and permeabilized on ice using Perm III Buffer (558050; BD Biosciences). Cells were stained with PE anti-PSTAT1 antibody (562069; BD Biosciences) for 30 min and analyzed by flow cytometry.

[5] = rats, data not shown
CYP450 1A2 = CYP450 1A2 (Homo sapiens, UniProt P05177); assay type: in vitro ADME
CYP450 1A2, sequence (P05177 whole entry): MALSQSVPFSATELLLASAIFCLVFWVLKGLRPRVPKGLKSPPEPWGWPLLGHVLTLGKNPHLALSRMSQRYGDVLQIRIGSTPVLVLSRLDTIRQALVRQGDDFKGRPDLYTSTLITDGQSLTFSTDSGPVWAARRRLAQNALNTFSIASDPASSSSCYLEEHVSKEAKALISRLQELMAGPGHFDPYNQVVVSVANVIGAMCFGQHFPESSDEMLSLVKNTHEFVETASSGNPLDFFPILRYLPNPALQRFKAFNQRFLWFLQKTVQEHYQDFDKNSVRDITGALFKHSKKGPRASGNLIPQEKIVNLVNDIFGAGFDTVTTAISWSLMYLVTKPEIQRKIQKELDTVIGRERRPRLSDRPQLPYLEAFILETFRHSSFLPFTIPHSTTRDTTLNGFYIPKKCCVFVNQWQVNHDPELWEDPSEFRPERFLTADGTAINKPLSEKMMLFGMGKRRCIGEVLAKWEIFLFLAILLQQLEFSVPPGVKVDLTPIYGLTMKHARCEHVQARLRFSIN
Method: The ADME properties of QL-1200186 in vitro were measured by the following assays: Caco-2 permeability assay, CYP inhibition assay, protein binding assay, and liver microsome assay. Each assay was performed as previously described.

TYK2 = target: T1, TYK2 (Homo sapiens, UniProt P29597); assay: IFNα-stimulated TYK2 phosphorylation in Jurkat cells, western blot; assay type: cell-based; conditions: IFNα 1000 U/mL
T1 construct: host or cells: Jurkat cells
T1 sequence (P29597 whole entry): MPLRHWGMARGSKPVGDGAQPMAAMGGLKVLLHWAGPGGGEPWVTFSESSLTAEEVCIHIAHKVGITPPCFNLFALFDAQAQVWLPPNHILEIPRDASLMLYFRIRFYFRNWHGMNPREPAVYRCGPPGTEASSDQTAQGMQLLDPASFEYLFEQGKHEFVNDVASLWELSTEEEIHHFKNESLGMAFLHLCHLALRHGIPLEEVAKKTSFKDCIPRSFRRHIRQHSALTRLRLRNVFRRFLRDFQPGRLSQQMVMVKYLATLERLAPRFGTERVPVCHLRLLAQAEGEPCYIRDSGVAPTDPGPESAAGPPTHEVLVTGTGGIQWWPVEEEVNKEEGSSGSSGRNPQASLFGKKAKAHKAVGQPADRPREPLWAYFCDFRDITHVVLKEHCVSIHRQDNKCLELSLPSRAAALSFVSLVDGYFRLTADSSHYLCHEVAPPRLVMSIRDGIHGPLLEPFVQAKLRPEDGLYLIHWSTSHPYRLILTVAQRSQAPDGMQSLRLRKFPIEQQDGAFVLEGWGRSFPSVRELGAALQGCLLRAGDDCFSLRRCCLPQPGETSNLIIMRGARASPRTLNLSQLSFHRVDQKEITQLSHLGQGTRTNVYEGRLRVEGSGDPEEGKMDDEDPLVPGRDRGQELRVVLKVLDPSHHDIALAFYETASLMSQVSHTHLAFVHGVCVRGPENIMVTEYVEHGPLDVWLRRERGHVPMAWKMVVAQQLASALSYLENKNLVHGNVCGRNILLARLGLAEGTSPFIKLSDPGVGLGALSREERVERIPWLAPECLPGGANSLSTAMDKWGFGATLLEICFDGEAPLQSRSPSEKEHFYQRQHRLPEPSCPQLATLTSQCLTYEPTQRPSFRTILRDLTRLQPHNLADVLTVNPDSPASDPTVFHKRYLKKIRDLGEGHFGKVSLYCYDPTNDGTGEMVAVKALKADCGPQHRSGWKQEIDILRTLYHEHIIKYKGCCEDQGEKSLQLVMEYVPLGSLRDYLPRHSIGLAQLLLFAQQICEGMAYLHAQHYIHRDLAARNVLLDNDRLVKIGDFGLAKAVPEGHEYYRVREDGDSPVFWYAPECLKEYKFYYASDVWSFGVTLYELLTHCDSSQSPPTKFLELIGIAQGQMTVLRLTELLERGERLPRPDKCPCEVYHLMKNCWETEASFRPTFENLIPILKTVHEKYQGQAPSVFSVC
Source text: Then, the phosphorylation of Tyr-1054 and Tyr-1055 in Jurkat cells (Cobioer Biosciences: CBP61444) was detected by western blotting to determine the inhibitory effect of QL-1200186 on TYK2 receptor-mediated activation.

Met ID in vitro = assay type: in vitro ADME, human
JAK1/JAK3 = assay: IL-2-stimulated pSTAT5 in human PBMC; assay type: cell-based; conditions: @10μM
Method: With regard to IL-2-stimulated JAK1/3 activation in human PBMCs, after 1 h of incubation with QL-1200186, human PBMCs were stimulated with human IL-2 (20 ng/mL; C013; Novoprotein) for 20 min.
(§2) The stimulations stated above were terminated with prewarmed Lyse/Fix Buffer (558,049; BD Biosciences, San Jose, CA, USA) for 10 min. Cells were stained with an anti-cluster of differentiation (CD)3 fluorescein isothiocyanate (FITC) antibody (required for PBMCs but not for the other cell types), washed, and permeabilized on ice using Perm III Buffer (558,050; BD Biosciences) prior to staining with an Alexa Fluor 647 anti-phosphorylated (p)STAT5 (pY694) antibody for 30 min and analyzed by flow cytometry. Phosphorylation of STAT5 was quantified by the median fluorescence intensity (MFI) after gating on the CD3-positive population.

[6] = system: imiquimod-induced psoriasis-like skin inflammation; assay: Imiquimod-induced mouse model of psoriasis (PASI); assay type: in vivo, mice
Method: Healthy male BALB/c mice (18–20 g) were divided randomly into three groups of eight according to body weight using Excel™ (Office™; Microsoft). After 1 week of adaptive feeding, mice received a daily topical dose of 62.5 mg of 5% imiquimod cream ([…]; Aldara®; 3 M Pharmaceuticals, Maplewood, MN, USA) on the shaved back and left ear for 7 consecutive days. Control mice were treated similarly with vehicle cream (Vaseline lanette creme; Fagron, Amsterdam, the Netherlands). Mice in the treatment group were given QL-1200186 (5 mg/kg or 1 mg/kg) orally twice a day (p.o., b.i.d.).
The Psoriasis Area and Severity Index (PASI) consists of erythema, scaling and skin thickness measurements. Mice were evaluated from day 1 when imiquimod was given for 7 consecutive days. The thickness of the mouse skin was measured using a micrometer. The PK parameters were also measured.

TYK2/JAK1 [7] = assay: IFNα-stimulated pSTAT5 in human PBMC (CD3+), FACS; assay type: cell-based
Method: With regard to IFNα-stimulated phosphorylation of STAT5 in human peripheral blood mononuclear cells (PBMCs), after incubation with QL-1200186 for 1 h, human PBMCs were stimulated with recombinant human IFNα (1000 U/mL; 11200–2; PBL Assay Science) for 30 min.
as §2

TYK2/JAK2 [8] = assay: IL-12/IL-18-induced IFNγ production in human whole blood, ELISA; assay type: cell-based; conditions: IL-12-induced
Method: as §1

JAK1 JH2 domain = JAK1 JH2 domain (Homo sapiens, UniProt P23458); assay: JAK1 JH2 binding assay
JAK1 JH2 domain, sequence (P23458 583-855 limits assumed): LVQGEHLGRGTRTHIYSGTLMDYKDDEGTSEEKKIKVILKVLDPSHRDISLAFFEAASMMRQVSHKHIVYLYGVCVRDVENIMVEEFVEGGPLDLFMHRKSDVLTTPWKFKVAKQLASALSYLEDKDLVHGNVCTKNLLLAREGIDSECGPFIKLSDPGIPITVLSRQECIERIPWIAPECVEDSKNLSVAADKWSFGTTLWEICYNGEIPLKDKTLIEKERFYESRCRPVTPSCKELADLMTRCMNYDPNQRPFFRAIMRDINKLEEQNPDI

In the case of CNC(=O)c1cnc2cc1Nc1cc(cc(-c3ccn(C)n3)c1OC)CCOCc1cccc(n1)N2 [QL-1200186, 5^6-methoxy-N-methyl-5^5-(1-methyl-1H-pyrazol-3-yl)-8-oxa-2,4-diaza-1(2,6),3(2,4)-dipyridina-5(1,3)-benzenacyclononaphane-3^5-carboxamide], the IC50 (TYK2/JAK2 [1]) is reported as 32.5 nM, the IC50 (TYK2/JAK1 [2]) is reported as 3.9 nM and the IC50 (TYK2/JAK1 [3]) is reported as 0.46 nM. The logD7.4 (logD7.4) was 3.6, the IC50 (TYK2/JAK1 [4]) was 1.61 nM and the “safety in toxicological studies” value [5] was “excellent safety”. For the same compound, the IC50 (CYP450 1A2) was greater than 50000 nM, the “IFNα-stimulated phosphorylation of TYK2 in Jurkat cells” value (TYK2) was “blocked IFNα-stimulated phosphorylation of TYK2 in Jurkat cells in a concentration-dependent manner” and the “specific human metabolites in vitro (Met ID)” value (Met ID in vitro) was “no specific human metabolites in vitro”. The “IL-2- pSTAT5 in PBMC (JAK1/JAK3) inhibition” value (JAK1/JAK3) was roughly 18% inhibition @10μM, the “psoriasis severity according to the thickness score” value ([6]; day 7) was “significantly alleviated psoriasis severity” and the “psoriasis-like inflammatory symptoms (erythema, scaling, thickening; PASI)” value ([6]; vs imiquimod group, p.o., b.i.d., n = 8) was “significantly improved psoriasis-like inflammatory symptoms”. The IC50 (TYK2/JAK1 [7]) was 7.26 nM, the “IFNγ production in human whole blood” value (TYK2/JAK2 [8]) was “significantly reduced” and the IC50 (JAK1 JH2 domain) was 9.85 nM.
